The source of these data is ChEMBL document CHEMBL1201862, “PubChem BioAssay data set” (2004).

Among the test systems are CAKI-1; CCRF-CEM; COLO 205; DU-145; HCT-15; HL-60; HOP-62; K562; LOX IMVI; MDA-N; Malme-3M; NCI/ADR-RES; RPMI-8226; SK-MEL-28; SK-MEL-2; TK-10; U-251; UACC-257; T47D.
Holding throughout (assay): growth of human tumour cells (NCI), 48 h

Each structure is given as a SMILES string.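 All cell lines were grown in 96-well plates and treated with compound for 48 hours. At the GI50, growth is halved.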 Activity calls are given as the source filed them. No stated cut-off is given here; in the data, active = GI50 up to about 1.1 µM and inactive = higher.

In the case of `CNC(=O)c1ccc(C(=O)NCCCCCN(O)C(=O)CCC(=O)NCCCCCN(O)C(=O)CCC(=O)NCCCCCN(O)C(C)=O)c(O)c1O`, the GI50 with CAKI-1 is 55.3 µM (inactive); in the experiment on CCRF-CEM it was 5 µM (inactive); in the experiment on COLO 205, 27.1 µM (inactive); in the experiment with DU-145 it was 55.1 µM (inactive); with HCT-15, 21.9 µM; in the experiment on HL-60, 23.8 µM (inactive). In addition, the GI50 with HOP-62 was 21.4 µM (inactive); in the experiment on K562, 65 µM (inactive); with LOX IMVI, 18.3 µM (inactive); in the experiment on MDA-N it was > 100 µM (inactive); with Malme-3M, 90.8 µM (inactive); with NCI/ADR-RES it was 41.6 µM (inactive). Besides, the GI50 is 38.5 µM (inactive) in the experiment with RPMI-8226; 42 µM (inactive) with SK-MEL-28; 95.7 µM (inactive) with SK-MEL-2; 78.9 µM (inactive) with TK-10; 33.9 µM (inactive) in the experiment with U-251; 68.5 µM (inactive) with UACC-257.
As to `CC1C2=C(CCCC2=O)N(c2ccc(Cl)cc2)C2=C1C(=O)CCC2`, the GI50 is > 100 µM (inactive) with CAKI-1; 38.5 µM (inactive) in the experiment on CCRF-CEM; 70 µM in the experiment with HCT-15; 31.3 µM (inactive) in the experiment with HL-60; 29.9 µM (inactive) in the experiment on K562; 68.5 µM (inactive) in the experiment on LOX IMVI. The GI50 in the experiment on NCI/ADR-RES was 71 µM (inactive); in the experiment on RPMI-8226 it was 67 µM (inactive); in the experiment on SK-MEL-28 it was > 100 µM (inactive); in the experiment on TK-10, 86.7 µM (inactive); in the experiment on U-251 it was 54.7 µM (inactive).
Consider `COc1c2cc([N+](=O)[O-])cc1CN(C(=O)C(F)(F)F)CCOCCN(C(=O)C(F)(F)F)C2`, for which the GI50 in the experiment on CAKI-1 was > 100 µM (inactive); in the experiment on CCRF-CEM, > 100 µM (inactive); in the experiment with COLO 205, > 100 µM (inactive); with DU-145 it was > 100 µM (inactive); in the experiment with HCT-15, over 100 µM; with HL-60, > 100 µM (inactive). For the same molecule, the GI50 with HOP-62, in the experiment with LOX IMVI, in the experiment on MDA-N, in the experiment on Malme-3M, with SK-MEL-28 and in the experiment on SK-MEL-2 was > 100 µM (inactive) in each case. Moreover, the GI50 in the experiment on T47D, in the experiment with TK-10, in the experiment on U-251 and in the experiment with UACC-257 was > 100 µM (inactive) each time.
Regarding `O=c1c2cc(Br)cc(Br)c2[nH]c(=S)n1-c1ccc(/N=N/c2ccc(O)c3cccnc23)cc1`, the GI50 was 54.3 µM (inactive) in the experiment on CAKI-1; 32.1 µM (inactive) with COLO 205; 33 µM (inactive) in the experiment on DU-145; 38.1 µM (inactive) in the experiment on HL-60; 33.3 µM (inactive) in the experiment on HOP-62; 10.7 µM (inactive) with K562. In addition, the GI50 in the experiment on LOX IMVI was 24.5 µM (inactive); with MDA-N, 31.4 µM (inactive); with Malme-3M, 18.7 µM (inactive); with RPMI-8226, 33.9 µM (inactive); in the experiment on SK-MEL-28 it was 76.9 µM (inactive); in the experiment on SK-MEL-2, > 100 µM (inactive). Moreover, the GI50 in the experiment on T47D was 38.2 µM (inactive); in the experiment on TK-10, 66.1 µM (inactive); in the experiment with U-251 it was 19.7 µM (inactive); with UACC-257 it was 50.5 µM (inactive).
Turning to `CC1=C(c2cc(C(=O)Nc3nccs3)nc(NC#N)n2)Sc2ccccc2N1`, the GI50 in the experiment with CAKI-1 is > 100 µM (inactive); in the experiment with CCRF-CEM, 79.1 µM (inactive); with COLO 205, > 100 µM (inactive); with HCT-15 it was 65.3 µM; in the experiment with HL-60 it was > 100 µM (inactive); with HOP-62 it was > 100 µM (inactive). The GI50 in the experiment with K562, with Malme-3M, with RPMI-8226, in the experiment on SK-MEL-28, in the experiment with SK-MEL-2 and in the experiment on TK-10 was > 100 µM (inactive) throughout. Further, the GI50 in the experiment on U-251 and with UACC-257 was > 100 µM (inactive) in each case.
Consider `COc1ccc(NC(=O)N(C)CC2(O)CCC(C(C)(C)C)CC2)cc1` (stereo not drawn), for which the GI50 in the experiment on CAKI-1 is < 0.01 µM (active); with CCRF-CEM it was 42.5 µM (inactive); with COLO 205, 36.1 µM (inactive); in the experiment with DU-145, > 100 µM (inactive); in the experiment on HCT-15, 61.7 µM; in the experiment on HL-60, 63.5 µM (inactive). For the same molecule, the GI50 with HOP-62 was > 100 µM (inactive); with K562, 66.2 µM (inactive); with LOX IMVI, 25.2 µM (inactive); with MDA-N, 55.1 µM (inactive); with Malme-3M, 24.8 µM (inactive); in the experiment with NCI/ADR-RES, 54.5 µM (inactive). The GI50 in the experiment with RPMI-8226 was 21 µM (inactive); in the experiment with SK-MEL-28, > 100 µM (inactive); in the experiment with SK-MEL-2, 63.8 µM (inactive); in the experiment on TK-10 it was 37 µM (inactive); in the experiment on U-251 it was > 100 µM (inactive); in the experiment with UACC-257, 33.9 µM (inactive).
Take `COc1ccccc1Cc1ccc(C2C=CC3(CC(=O)C=C3C)C(=O)C2)o1` (stereo not drawn): the GI50 in the experiment with CAKI-1 was 29.6 µM (inactive); with COLO 205, 23.2 µM (inactive); in the experiment on DU-145 it was 29.4 µM (inactive); in the experiment with HCT-15, 25.6 µM; with HL-60 it was 17.7 µM (inactive); with HOP-62, 15 µM (inactive). The GI50 is 20 µM (inactive) with K562; 17.3 µM (inactive) in the experiment on LOX IMVI; 18.5 µM (inactive) with MDA-N; 17.9 µM (inactive) in the experiment with Malme-3M; 24.7 µM (inactive) in the experiment on NCI/ADR-RES; 17.4 µM (inactive) in the experiment on RPMI-8226. The GI50 in the experiment with SK-MEL-28 is 34.4 µM (inactive); in the experiment on SK-MEL-2, 14.7 µM (inactive); in the experiment on TK-10 it was 39.5 µM (inactive); in the experiment on U-251, 16.3 µM (inactive); in the experiment with UACC-257 it was 22.4 µM (inactive).
`CCCCCCCC(=O)N1C2CC3CCC2(CS1(=O)=O)C3(C)C` (stereo not drawn): the GI50 with CAKI-1 was 20.2 µM (inactive); with CCRF-CEM, 16.5 µM (inactive); in the experiment on COLO 205, 21.8 µM (inactive); in the experiment with DU-145, 36.6 µM (inactive); in the experiment on HCT-15, 13.1 µM; in the experiment on HL-60, 20 µM (inactive). Besides, the GI50 in the experiment with HOP-62 is 20.8 µM (inactive); in the experiment with MDA-N, 26.8 µM (inactive); with Malme-3M, 16.7 µM (inactive); in the experiment on RPMI-8226 it was 19.7 µM (inactive); in the experiment on SK-MEL-28, 14.4 µM (inactive); in the experiment on TK-10, 33.6 µM (inactive). Further, the GI50 in the experiment on U-251 is 31.3 µM (inactive); in the experiment with UACC-257 it was 24.5 µM (inactive).
For `C=CCCC(=O)C(=[N+]=[N-])C(=O)CCC(=O)c1ccccc1`, the GI50 with DU-145 was > 10 µM (inactive); in the experiment with HCT-15 it was over 10 µM; in the experiment on HOP-62, > 10 µM (inactive); in the experiment with K562, > 10 µM (inactive); in the experiment on LOX IMVI, > 10 µM (inactive); in the experiment on MDA-N it was > 10 µM (inactive). The GI50 in the experiment on Malme-3M, with RPMI-8226, in the experiment on SK-MEL-28, in the experiment with SK-MEL-2, in the experiment on T47D and with TK-10 was > 10 µM (inactive) each time. Besides, the GI50 in the experiment on U-251 and in the experiment on UACC-257 was > 10 µM (inactive) each time.
On to `CCNC(=O)c1c(O)nc2ccccc2c1O`, for which the GI50 is 55.5 µM (inactive) with CAKI-1; 52.2 µM (inactive) with CCRF-CEM; 56.9 µM (inactive) in the experiment on COLO 205; 80.9 µM (inactive) in the experiment on DU-145; 29 µM with HCT-15; 35.6 µM (inactive) in the experiment on HL-60. Besides, the GI50 with HOP-62 is 64.9 µM (inactive); in the experiment with K562, 39.8 µM (inactive); with LOX IMVI, 51.5 µM (inactive); with MDA-N, 84.9 µM (inactive); with Malme-3M, > 100 µM (inactive); in the experiment on NCI/ADR-RES it was > 100 µM (inactive). Moreover, the GI50 with RPMI-8226 is 17.6 µM (inactive); in the experiment on SK-MEL-28 it was > 100 µM (inactive); in the experiment on TK-10 it was 50.6 µM (inactive); in the experiment on U-251, 29.5 µM (inactive); in the experiment with UACC-257, > 100 µM (inactive).
`CSC1=N/C(=C\c2ccco2)C(=O)N1CN1CCCCC1`: the GI50 is 38.4 µM (inactive) with COLO 205; 81.3 µM (inactive) in the experiment with DU-145; 38.4 µM in the experiment with HCT-15; > 100 µM (inactive) with HOP-62; 59.6 µM (inactive) in the experiment with K562; 33.7 µM (inactive) in the experiment on LOX IMVI. Moreover, the GI50 in the experiment on MDA-N was > 100 µM (inactive); in the experiment on Malme-3M it was > 100 µM (inactive); in the experiment on NCI/ADR-RES it was > 100 µM (inactive); in the experiment on RPMI-8226, 35.6 µM (inactive); in the experiment on SK-MEL-28, > 100 µM (inactive); with SK-MEL-2, > 100 µM (inactive). Also, the GI50 in the experiment with TK-10 and with U-251 was > 100 µM (inactive) throughout.
Turning to `CCCC(=O)C1=C(O)C(Cc2c(O)c(C)c(O)c(C(=O)CCC)c2O)=C(O)C(C)(C)C1=O`, the GI50 is > 50 µM (inactive) in the experiment on CAKI-1; 0.421 µM (active) with CCRF-CEM; 19.4 µM (inactive) with COLO 205; > 50 µM (inactive) in the experiment with DU-145; 20 µM with HCT-15; 31.8 µM (inactive) in the experiment on HOP-62. The GI50 with K562 is 15.4 µM (inactive); in the experiment with LOX IMVI, 19 µM (inactive); in the experiment with MDA-N, > 50 µM (inactive); in the experiment on RPMI-8226, 17 µM (inactive); in the experiment on SK-MEL-28, 16.2 µM (inactive); with SK-MEL-2, 22.4 µM (inactive). Further, the GI50 with T47D was 49.2 µM (inactive); with TK-10 it was 30.6 µM (inactive); in the experiment on U-251, 22.9 µM (inactive); in the experiment with UACC-257, > 50 µM (inactive).
`CC(=O)c1cc(CC2Cc3cc4c(cc3C2=O)CCC4)cc2c1CCC2` (stereo not drawn): the GI50 was 90.2 µM (inactive) with CAKI-1; 24 µM (inactive) in the experiment on CCRF-CEM; 24.8 µM (inactive) in the experiment with COLO 205; > 100 µM (inactive) in the experiment on DU-145; 44.1 µM in the experiment with HCT-15; 8.65 µM (inactive) in the experiment with HL-60. The GI50 in the experiment with HOP-62 is > 100 µM (inactive); in the experiment with K562, 12.5 µM (inactive); in the experiment with LOX IMVI, 24 µM (inactive); in the experiment on Malme-3M, 33 µM (inactive); in the experiment with NCI/ADR-RES, 26.2 µM (inactive); in the experiment with RPMI-8226 it was 10.7 µM (inactive). Moreover, the GI50 is > 100 µM (inactive) in the experiment with SK-MEL-28; 71.1 µM (inactive) in the experiment with SK-MEL-2; 15.1 µM (inactive) with T47D; 38.5 µM (inactive) in the experiment on TK-10; 33.7 µM (inactive) in the experiment on U-251; 29.9 µM (inactive) in the experiment with UACC-257.
